The test system of this data set is CCRIS mutagenicity, Ames/micronucleus/aberration tests. The experiment in a line: CCRIS mutagenicity studies.
Setting [1] is: Test System: AMES SALMONELLA TYPHIMURIUM, Strain/Indicator: TA100, Metabolic Activation: NONE, Method: PREINCUBATION
Where [2] appears, read: Test System: AMES SALMONELLA TYPHIMURIUM, Strain/Indicator: TA98, Metabolic Activation: NONE, Method: STANDARD PLATE.
The mark [3] stands for this setting: Test System: AMES SALMONELLA TYPHIMURIUM, Strain/Indicator: TA100, Metabolic Activation: NONE, Method: STANDARD PLATE.
Setting [4] is: Test System: AMES SALMONELLA TYPHIMURIUM, Strain/Indicator: TA1535, Metabolic Activation: NONE, Method: STANDARD PLATE.
[5] abbreviates: Test System: AMES SALMONELLA TYPHIMURIUM, Strain/Indicator: TA1538, Metabolic Activation: NONE, Method: STANDARD PLATE.

The source made the active and inactive calls. No rule for the calls is given here.

Drawing on PubChem BioAssay AID1259407 (Chemical Carcinogenesis Research Information System (CCRIS), 2018), this text covers mutagenic call for seven compounds.

Regarding `N[C@H](Cc1ccccc1)C(=O)O`, the mutagenic call reads like this: (Test System: AMES SALMONELLA TYPHIMURIUM, Strain/Indicator: TA98, Metabolic Activation: HAMSTER, LIVER, S-9, AROCLOR 1254 (10%), Method: PREINCUBATION) “inactive; negative”; (Test System: AMES SALMONELLA TYPHIMURIUM, Strain/Indicator: TA98, Metabolic Activation: NONE, Method: PREINCUBATION) “inactive; negative”; (Test System: AMES SALMONELLA TYPHIMURIUM, Strain/Indicator: TA98, Metabolic Activation: RAT, LIVER, S-9, AROCLOR 1254 (10%), Method: PREINCUBATION) “inactive; negative”; (Test System: AMES SALMONELLA TYPHIMURIUM, Strain/Indicator: TA100, Metabolic Activation: HAMSTER, LIVER, S-9, AROCLOR 1254 (10%), Method: PREINCUBATION) “inactive; negative”; under setting [1], “inactive; negative”; (Test System: AMES SALMONELLA TYPHIMURIUM, Strain/Indicator: TA100, Metabolic Activation: RAT, LIVER, S-9, AROCLOR 1254 (10%), Method: PREINCUBATION) “inactive; negative”. Further, the mutagenic call reads like this: (Test System: AMES SALMONELLA TYPHIMURIUM, Strain/Indicator: TA1535, Metabolic Activation: HAMSTER, LIVER, S-9, AROCLOR 1254 (10%), Method: PREINCUBATION) “inactive; negative”; (Test System: AMES SALMONELLA TYPHIMURIUM, Strain/Indicator: TA1535, Metabolic Activation: NONE, Method: PREINCUBATION) “inactive; negative”; (Test System: AMES SALMONELLA TYPHIMURIUM, Strain/Indicator: TA1535, Metabolic Activation: RAT, LIVER, S-9, AROCLOR 1254 (10%), Method: PREINCUBATION) “inactive; negative”; (Test System: AMES SALMONELLA TYPHIMURIUM, Strain/Indicator: TA1537, Metabolic Activation: HAMSTER, LIVER, S-9, AROCLOR 1254 (10%), Method: PREINCUBATION) “inactive; negative”; (Test System: AMES SALMONELLA TYPHIMURIUM, Strain/Indicator: TA1537, Metabolic Activation: NONE, Method: PREINCUBATION) “inactive; negative”; (Test System: AMES SALMONELLA TYPHIMURIUM, Strain/Indicator: TA1537, Metabolic Activation: RAT, LIVER, S-9, AROCLOR 1254 (10%), Method: PREINCUBATION) “inactive; negative”.
With `CCc1ccc(C)cc1`, the mutagenic call was “inactive; negative” (Test System: AMES SALMONELLA TYPHIMURIUM, Strain/Indicator: TA97A, Metabolic Activation: NONE, Method: STANDARD PLATE); “inactive; negative” (Test System: AMES SALMONELLA TYPHIMURIUM, Strain/Indicator: TA97A, Metabolic Activation: RAT LIVER S-9, AROCLOR 1254, Method: STANDARD PLATE); “inactive; negative” under setting [2]; “inactive; negative” (Test System: AMES SALMONELLA TYPHIMURIUM, Strain/Indicator: TA98, Metabolic Activation: RAT LIVER S-9, AROCLOR 1254, Method: STANDARD PLATE); “inactive; negative” under setting [3]; “inactive; negative” (Test System: AMES SALMONELLA TYPHIMURIUM, Strain/Indicator: TA100, Metabolic Activation: RAT LIVER S-9, AROCLOR 1254, Method: STANDARD PLATE). Further, the mutagenic call was “inactive; negative” (Test System: AMES SALMONELLA TYPHIMURIUM, Strain/Indicator: TA102, Metabolic Activation: NONE, Method: STANDARD PLATE) and “inactive; negative” (Test System: AMES SALMONELLA TYPHIMURIUM, Strain/Indicator: TA102, Metabolic Activation: RAT LIVER S-9, AROCLOR 1254, Method: STANDARD PLATE).
With `COP(=S)(OC)SCN1C(=O)c2ccccc2C1=O`, the mutagenic call is, setting by setting: (Test System: AMES SALMONELLA TYPHIMURIUM, Strain/Indicator: TA97, Metabolic Activation: NONE, Method: STANDARD PLATE) “active; positive”; (Test System: AMES SALMONELLA TYPHIMURIUM, Strain/Indicator: TA97, Metabolic Activation: RAT, LIVER, S-9, DELOR 103, Method: STANDARD PLATE) “active; positive”; (Test System: AMES SALMONELLA TYPHIMURIUM, Strain/Indicator: TA97, Metabolic Activation: RAT, LIVER, S-9, PHENOBARBITAL, Method: STANDARD PLATE) “active; positive”; under setting [2], “inactive; negative”; (Test System: AMES SALMONELLA TYPHIMURIUM, Strain/Indicator: TA98, Metabolic Activation: RAT, LIVER, S-9, DELOR 103, Method: STANDARD PLATE) “inactive; negative”; (Test System: AMES SALMONELLA TYPHIMURIUM, Strain/Indicator: TA98, Metabolic Activation: RAT, LIVER, S-9, PHENOBARBITAL, Method: STANDARD PLATE) “inactive; negative”. In addition, the mutagenic call under setting [3] was “active; positive”; the mutagenic call (Test System: AMES SALMONELLA TYPHIMURIUM, Strain/Indicator: TA100, Metabolic Activation: RAT, LIVER, S-9, DELOR 103, Method: STANDARD PLATE) is “active; positive”; the mutagenic call (Test System: AMES SALMONELLA TYPHIMURIUM, Strain/Indicator: TA100, Metabolic Activation: RAT, LIVER, S-9, PHENOBARBITAL, Method: STANDARD PLATE) is “active; positive”; the mutagenic call (Test System: AMES SALMONELLA TYPHIMURIUM, Strain/Indicator: TA100, Metabolic Activation: S-9 MIX, Method: STANDARD PLATE) is “active; positive”; the mutagenic call under setting [4] is “inactive; negative”; the mutagenic call (Test System: AMES SALMONELLA TYPHIMURIUM, Strain/Indicator: TA1535, Metabolic Activation: RAT, LIVER, S-9, DELOR 103, Method: STANDARD PLATE) is “inactive; negative”. Moreover, the mutagenic call is “inactive; negative” (Test System: AMES SALMONELLA TYPHIMURIUM, Strain/Indicator: TA1535, Metabolic Activation: RAT, LIVER, S-9, PHENOBARBITAL, Method: STANDARD PLATE); “inactive; negative” under setting [5]; “inactive; negative” (Test System: AMES SALMONELLA TYPHIMURIUM, Strain/Indicator: TA1538, Metabolic Activation: RAT, LIVER, S-9, DELOR 103, Method: STANDARD PLATE); “inactive; negative” (Test System: AMES SALMONELLA TYPHIMURIUM, Strain/Indicator: TA1538, Metabolic Activation: RAT, LIVER, S-9, PHENOBARBITAL, Method: STANDARD PLATE); “inactive; negative” (Test System: CHINESE HAMSTER V-79, Strain/Indicator: V-79/6-THIOGUANINE, Metabolic Activation: NONE, Method: RESPREADING); “active; positive” (Test System: CHINESE HAMSTER V-79, Strain/Indicator: V-79/6-THIOGUANINE, Metabolic Activation: RAT, LIVER, S-9, Method: RESPREADING).
With `O=[N+]([O-])c1ccc2c(c1)CC=C2`, the mutagenic call under setting [2] was “active; positive”.
With `CC(Br)C(=O)NC(C)(C)C` (centres undefined), the mutagenic call under setting [3] was “inactive; negative”.
Take `CN(C)c1nc(N(C)C)nc(N(C)C)n1`: the mutagenic call under setting [1] was “inactive; negative”; the mutagenic call (Test System: AMES SALMONELLA TYPHIMURIUM, Strain/Indicator: TA100, Metabolic Activation: RAT, LIVER, S-9, AROCLOR 1254 (4 OR 10%), Method: PREINCUBATION) is “inactive; negative”; the mutagenic call (Test System: AMES SALMONELLA TYPHIMURIUM, Strain/Indicator: TA100, Metabolic Activation: RAT, LIVER, S-9, AROCLOR 1254 (10%), Method: STANDARD PLATE) is “inactive; negative”; the mutagenic call (Test System: AMES SALMONELLA TYPHIMURIUM, Strain/Indicator: TA100, Metabolic Activation: RAT, LIVER, S-9, AROCLOR 1254 (30%), Method: PREINCUBATION) is “active; positive”.
As for `N#CC1=C(C#N)SCCS1`, the mutagenic call under setting [2] is “inactive; negative”; the mutagenic call (Test System: AMES SALMONELLA TYPHIMURIUM, Strain/Indicator: TA98, Metabolic Activation: RAT, LIVER, S-9, AROCLOR 1254, Method: STANDARD PLATE) was “inactive; negative”; the mutagenic call under setting [3] was “inactive; negative”; the mutagenic call (Test System: AMES SALMONELLA TYPHIMURIUM, Strain/Indicator: TA100, Metabolic Activation: RAT, LIVER, S-9, AROCLOR 1254, Method: STANDARD PLATE) is “inactive; negative”; the mutagenic call under setting [4] is “inactive; negative”; the mutagenic call (Test System: AMES SALMONELLA TYPHIMURIUM, Strain/Indicator: TA1535, Metabolic Activation: RAT, LIVER, S-9, AROCLOR 1254, Method: STANDARD PLATE) was “inactive; negative”. Further, the mutagenic call is “inactive; negative” (Test System: AMES SALMONELLA TYPHIMURIUM, Strain/Indicator: TA1537, Metabolic Activation: NONE, Method: STANDARD PLATE); “inactive; negative” (Test System: AMES SALMONELLA TYPHIMURIUM, Strain/Indicator: TA1537, Metabolic Activation: RAT, LIVER, S-9, AROCLOR 1254, Method: STANDARD PLATE); “inactive; negative” under setting [5]; “inactive; negative” (Test System: AMES SALMONELLA TYPHIMURIUM, Strain/Indicator: TA1538, Metabolic Activation: RAT, LIVER, S-9, AROCLOR 1254, Method: STANDARD PLATE).
